Data published in publication PMC12012479, “Structural and functional characterization of the brain-specific dynamin superfamily member RNF112” (Proceedings of the National Academy of Sciences of the …, 2025).
Numbering of substitutions follows the chain as printed. Each block holds one molecule with its values, some of them ahead of it.

Assays:
[1] = molecular target: T1, RNF112F (Xenopus laevis, UniProt Q2VPQ0, T240A, form not given); assay: binding assay in SI Fig. S9; settings: GTPase-deficient mutant
T1 construct: gene rnf112.2.L; near-full-length, residues 60 to 541 (RING, GTPase and middle domains); His6-SUMO tag cut by ULP1; E. coli; dimer with GDP-AlF4-
T1 sequence (Q2VPQ0 60-541 T240A): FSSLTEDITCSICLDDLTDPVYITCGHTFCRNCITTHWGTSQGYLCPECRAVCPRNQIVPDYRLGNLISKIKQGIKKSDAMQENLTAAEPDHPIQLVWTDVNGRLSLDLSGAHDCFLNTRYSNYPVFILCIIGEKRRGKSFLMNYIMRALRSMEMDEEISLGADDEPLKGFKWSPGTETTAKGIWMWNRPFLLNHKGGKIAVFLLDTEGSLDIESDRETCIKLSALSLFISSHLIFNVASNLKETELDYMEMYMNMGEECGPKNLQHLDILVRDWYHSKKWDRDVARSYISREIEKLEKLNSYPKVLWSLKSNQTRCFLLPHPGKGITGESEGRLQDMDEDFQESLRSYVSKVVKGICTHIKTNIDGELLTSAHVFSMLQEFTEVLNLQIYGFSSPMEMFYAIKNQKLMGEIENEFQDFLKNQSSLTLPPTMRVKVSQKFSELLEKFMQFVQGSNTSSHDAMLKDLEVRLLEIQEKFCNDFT

[2] = molecular target: T2, RNF112F (Xenopus laevis, UniProt Q2VPQ0); assay: GTP hydrolysis assay; assay type: biochemical; settings: 1 mM GTP, 20 μM protein, 1 mM MnCl2, pH 7.0, 37 °C
T2 construct: gene rnf112.2.L; near-full-length, residues 60 to 541 (RING, GTPase and middle domains); His6-SUMO tag cut by ULP1; E. coli; dimer with GDP-AlF4-
T2 sequence (Q2VPQ0 60-541): T1 sequence (Q2VPQ0 60-541 T240A) with A181T

[3] = molecular target: T3, human RNF112T (Homo sapiens, UniProt Q9ULX5); assay: GTP hydrolysis assay; assay type: biochemical; settings: 1 mM GTP, 20 μM protein, 1 mM MnCl2, pH 7.0, 37 °C
T3 construct: gene RNF112; truncated, GTPase domain + middle domain (borders not in main text); E. coli
T3 sequence (Q9ULX5 150-540 limits assumed): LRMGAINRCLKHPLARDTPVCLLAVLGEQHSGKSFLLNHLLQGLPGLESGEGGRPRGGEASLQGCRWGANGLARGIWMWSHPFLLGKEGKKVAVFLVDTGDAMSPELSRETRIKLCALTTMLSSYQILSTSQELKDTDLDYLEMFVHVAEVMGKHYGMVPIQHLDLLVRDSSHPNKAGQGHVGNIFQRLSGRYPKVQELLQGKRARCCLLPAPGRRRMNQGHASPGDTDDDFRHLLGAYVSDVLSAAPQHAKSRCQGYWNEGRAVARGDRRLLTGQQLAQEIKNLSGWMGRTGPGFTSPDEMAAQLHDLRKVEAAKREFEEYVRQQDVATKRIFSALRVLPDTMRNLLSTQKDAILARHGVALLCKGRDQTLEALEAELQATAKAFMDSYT

[4] = molecular target: T4, mouse RNF112T (Mus musculus, UniProt Q96DY5); assay: GTP hydrolysis assay; assay type: biochemical; settings: 1 mM GTP, 20 μM protein, 1 mM MnCl2, pH 7.0, 37 °C
T4 construct: gene Rnf112; truncated, GTPase domain + middle domain (borders not in main text); E. coli
T4 sequence (Q96DY5 170-563 limits assumed): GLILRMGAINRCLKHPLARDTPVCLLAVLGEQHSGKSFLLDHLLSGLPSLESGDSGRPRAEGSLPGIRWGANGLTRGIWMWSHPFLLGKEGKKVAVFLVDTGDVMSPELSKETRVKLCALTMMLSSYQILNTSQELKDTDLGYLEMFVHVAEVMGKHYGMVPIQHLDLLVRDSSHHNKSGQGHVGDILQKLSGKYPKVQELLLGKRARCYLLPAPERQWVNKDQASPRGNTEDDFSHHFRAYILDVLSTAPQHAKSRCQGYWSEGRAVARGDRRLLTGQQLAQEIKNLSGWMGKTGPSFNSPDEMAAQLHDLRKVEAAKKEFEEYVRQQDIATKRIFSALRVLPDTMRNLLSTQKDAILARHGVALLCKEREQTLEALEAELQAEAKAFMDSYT

[5] = molecular target: T5, RNF112T (xlRNF112T) (Xenopus laevis, UniProt Q2VPQ0); assay: ITC; assay type: binding; settings: 5 mM MgCl2, 150 mM NaCl, pH 7.4, 25 °C
T5 construct: gene rnf112.2.L; GTPase domain + three-helix middle domain; His6-SUMO tag cut by ULP1; E. coli; monomer, dimer with GDP-AlF4-
T5 sequence (Q2VPQ0 120-541 limits assumed): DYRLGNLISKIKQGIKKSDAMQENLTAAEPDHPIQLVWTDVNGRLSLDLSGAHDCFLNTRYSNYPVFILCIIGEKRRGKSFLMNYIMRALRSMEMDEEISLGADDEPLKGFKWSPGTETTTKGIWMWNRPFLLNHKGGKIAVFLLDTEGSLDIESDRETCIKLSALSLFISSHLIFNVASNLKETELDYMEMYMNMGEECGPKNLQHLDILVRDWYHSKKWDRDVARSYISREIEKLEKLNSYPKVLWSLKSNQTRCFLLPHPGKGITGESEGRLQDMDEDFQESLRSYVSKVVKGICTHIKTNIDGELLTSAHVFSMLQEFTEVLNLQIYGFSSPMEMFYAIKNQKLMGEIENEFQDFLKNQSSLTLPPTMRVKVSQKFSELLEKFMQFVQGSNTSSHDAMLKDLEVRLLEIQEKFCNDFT
Excerpt: ITC on RNF112T (xlRNF112T) | binding GTPγS and GDP with dissociation constants (Kd) in the micromolar range

[6] = molecular target: T5, RNF112T (xlRNF112T); assay: X-ray crystal structure (form […] from GTPγS, […] Å; form […] by soaking); assay type: binding; settings: nucleotide pocket of GTPase domain
[7] = molecular target: near-full-length Xenopus laevis RNF112 containing residues 60 to 541 (RNF112F) (Xenopus laevis); assay: SEC; analytical gel filtration in the presence of GDP•AlF4^−

Molecule: Nc1nc2c(ncn2[C@@H]2O[C@H](COP(=O)(O)OP(=O)(O)OP(=O)(O)O)[C@@H](O)[C@H]2O)c(=O)[nH]1 [GTP]
binding assay in SI Fig. S9 [1]: GTPase-deficient mutant RNF112F(T240A), which bound GTP but did not dimerize
GTP hydrolysis assay [2]: showed similar GTPase activity as RNF112T
GTP hydrolysis assay [3]: purified human and mouse RNF112T had relatively weak GTPase activity
GTP hydrolysis assay [4]: purified human and mouse RNF112T had relatively weak GTPase activity

Kd [5]: 14.4 ± 2.5 µM
Molecule: Nc1nc2c(ncn2[C@@H]2O[C@H](COP(=O)(O)OP(=O)(O)O)[C@@H](O)[C@H]2O)c(=O)[nH]1 [GDP]
X-ray crystal structure (form 1 from GTPγS, 2.2 Å; form 2 by soaking) [6]: GDP-bound RNF112T structure derived from a nucleotide-free RNF112T crystal soaked with GDP

stoichiometry N [7]: 2
Molecule: near-full-length Xenopus laevis RNF112 containing residues 60 to 541 (RNF112F) (domain or fragment)
